In article PMC10011747, “Targeting androgen receptor and the variants by an orally bioavailable Proteolysis Targeting Chimeras compound in castration resistant prostate cancer” (eBioMedicine, 2023):
Where two headings read alike, the source gives them in different places.

Tests used:
[1] = target: T1, AR NTD (221–320) (Homo sapiens, UniProt P10275); assay: Affinity selection mass spectrometer (ASMS) binding assay; details: 100 nM compound with 100 nM GST-AR-NTD, 1 h 37 °C; percentage of input compound recovered
T1 construct: GST tagged AR-NTD protein (221–320) (Abcam ab157902); purchased Abcam ab157902; host or cells: wheat germ (datasheet)
T1 sequence (P10275 221-320): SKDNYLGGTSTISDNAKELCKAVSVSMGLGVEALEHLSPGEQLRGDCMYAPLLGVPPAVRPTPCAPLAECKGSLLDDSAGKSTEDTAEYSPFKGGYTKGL
Method: Affinity selection mass spectrometer (ASMS)[40] binding assay was employed for the screen and relative binding affinity assessment of AR NTD binding compounds. Briefly, GST tagged AR-NTD protein (221–320) (Abcam ab157902) at final concentration of 100 nM was incubated with 100 nM of individual candidate compounds in PBS for 1 h at 37 °C. The protein-compound mixture was filtered through 10K MWCO pore sized Nanosep centrifugal column (PALL Life science) with thorough wash steps to separate protein-bound and unbound compounds. The protein-bound compounds were subsequently extracted and analyzed by ABSCIEX 4000 QTRAP LC-ESI MS/MS (AB Sciex, Framingham, MA) coupled to an Agilent 1200 HPLC system. A Waters S XBridge RP18, 3.5 μm, 4.6 × 20 mm column was used as the stationary phase (Waters Corporation, Milford, MA, USA). Gradient elution was carried out using water with 0.1% formic acid (solvent A) and acetonitrile with 0.1% formic acid (solvent B) as a mobile phase. Positive ion polarity scanning was used in electrospray (ESI) mass-triggered fraction collection to monitor the target mass. Quantification of protein-bound compounds was determined against calibration curves established with drug standards. For relative binding affinity assessment, same procedure and condition was carried out for each compound without target protein incubated in the reaction as background controls. Relative binding affinity was calculated as percentage of input compound quantity after background value subtraction.

[2] = tested on: LNCaP cells; assay: alamarBlue cell viability, LNCaP; assay type: cell-based; details: Homo sapiens, 168 h, 7 days treatment, normal hormone condition
Method: (§1) Cells were seeded in triplicate in 96-well plates 1 day prior to drug treatment for all assays. For viability test and IC50 assessment, the alamarBlue™ Cell Viability Reagent (Thermo Fisher Scientific) was added to cells 7 days after PROTAC treatment, followed by fluorescence detection as the manufacturer instructed. The IC50 was calculated by dose-inhibition regression. For proliferation monitoring, 2, 4, 6 and 8 days after PROTAC treatment (day 0), viable cells were detected by MTT Cell Proliferation Kit I (Sigma–Aldrich) according to the manufacturer's instructions. Cellular caspase activity was measured by Caspase-Glo 3/7 Assay System (Promega) 1 or 2 days after the drug treatment.

[3] = tested on: CWR22Rv1 cells; assay: alamarBlue cell viability, CWR22Rv1; assay type: cell-based; details: Homo sapiens, CWR22Rv1, 168 h; 7 days treatment, normal hormone condition
Method: as §1

[4] = Pharmacokinetic analysis in BALB/c mice; assay type: in vivo, mouse; details: for clearance: read-out: plasma clearance rate; for bioavailability: read-out: BA (bioavailability)
Method: Six to eight-week-old male BALB/c (BALB/cAnNCrlBltw) mice weighing between 22 and 30 g were purchased from BioLASCO Taiwan Co., Ilan, Taiwan. In vivo PK analysis of the PROTAC compounds was performed with 2 mg/kg for intravenous injection (IV, n = 2), 10 mg/kg for intraperitoneal injection (IP, n = 3), and 10 or 30 mg/kg for oral (PO, n = 3) dosing route. Blood samples from the mice were collected using Microvette® CB 300 EDTA blood collection tubes by a lancet at 0.167 h (IV only), 0.5, 1, 2, 4, 7 and 24 h time points. The plasma was then subjected to LC-MS analysis to quantitate the drug concentration against calibration curves that were established with drug standards prepared in mice plasma.

[5] = male, BALB/c, mouse, plasma, intravenous, 2 mg/kg
[6] = male, BALB/c, mouse, plasma, IP, 10 mg/kg
[7] = male, BALB/c, mouse, plasma, PO, 10 mg/kg
[8] = male, BALB/c, mouse, plasma, ip, 10 mg/kg, 0-24 h
[9] = male, BALB/c, mouse, plasma, ip, 10 mg/kg, IP, 10 mg/kg, read-out: Cmax
[10] = male, BALB/c, mouse, plasma, PO, 30 mg/kg

Compound | ASMS relative binding (%) [1] [%] | IC50 [2] [µM] | IC50 [3] [µM] | AUC/Dose ([4]; intravenous, 2 mg/kg) [ng·h/mL] | clearance [4, 5] [mL/min/kg] | AUC/Dose ([4]; IP, 10 mg/kg, 0-24 h) [h⋅kg⋅ng/mL/mg] | AUC/Dose ([4]; PO, 10 mg/kg, 0-24 h) [h⋅kg⋅ng/mL/mg] | Tmax [4, 6] [h] | Tmax [4, 7] [h] | bioavailability [4, 7] [%] | AUC(0-t) [4, 8] [ng·h/mL] | Cmax [4, 9] [ng/mL] | AUC(0-t) ([4]; male, BALB/c, mouse, plasma, po, 10 mg/kg, 0-24 h) [ng·h/mL] | Cmax ([4]; male, BALB/c, mouse, plasma, po, 10 mg/kg, PO, 10 mg/kg, read-out: Cmax) [ng/mL] | Cmax ([4]; PO, 30 mg/kg) [ng/mL] | AUC/Dose ([4]; PO, 30 mg/kg, 0-24 h) [h⋅kg⋅ng/mL/mg] | Tmax [4, 10] [h] | bioavailability [4, 10] [%] | AUC(0-t) ([4]; male, BALB/c, mouse, plasma, po, 30 mg/kg, 0-24 h) [ng·h/mL] | Cmax ([4]; male, BALB/c, mouse, plasma, po, 30 mg/kg, PO, 30 mg/kg, read-out: Cmax) [ng/mL]
Cc1ncsc1-c1ccc(CNC(=O)[C@@H]2C[C@H](O)CN2C(=O)[C@@H](NC(=O)COCCCCCCOc2ccc(C3CCN(C4=Nn5c(nnc5C(F)(F)F)CC4)CC3)cc2)C(C)(C)C)cc1 [ITRI-125, (2S,4S)-1-((S)-3,3-dimethyl-2-(2-(6-(4-(1-(3-(trifluoromethyl)-7,8-dihydro-[1,2,4]triazolo[4,3-b]pyridazin-6-yl)piperidin-4-yl)phenoxy)hexyloxy)acetamido)butanoyl)-4-hydroxy-N-(4-(4-methylthiazol-5-yl)benzyl)pyrrolidine-2-carboxamide] | 13.6 | 6.36 ± 2.1 | 6.92 ± 6.23 | 2839.9 ± 36.7 | 5.68 | – | – | – | – | – | – | – | – | – | – | – | – | – | – | –
O=C1CCC(N2Cc3c(NC(=O)COCCCCOc4ccc(C5CCN(C6=Nn7c(nnc7C(F)(F)F)CC6)CC5)cc4)cccc3C2=O)C(=O)N1 (stereo not shown) [ITRI-126, N-(2-(2,6-dioxopiperidin-3-yl)-1-oxoisoindolin-4-yl)-2-(4-(4-(1-(3-(trifluoromethyl)-7,8-dihydro-[1,2,4]triazolo[4,3-b]pyridazin-6-yl)piperidin-4-yl)phenoxy)butoxy)acetamide] | 20 | 0.464 ± 0.093 | 0.071 ± 0.017 | – | 24.7 | 234.2 ± 26.3 | 20.4 ± 8.6 | 1.5 ± 0.5 | 0.7 ± 0.2 | 4.6 ± 1.9 | 2340 ± 263 | 706 ± 222 | 204 ± 85.9 | 95.7 ± 47.1 | – | – | – | – | – | –
Cc1ncsc1-c1ccc(CNC(=O)[C@@H]2C[C@H](O)CN2C(=O)[C@@H](NC(=O)COCCCCOc2ccc(C3CCN(C4=Nn5c(nnc5C(F)(F)F)CC4)CC3)cc2)C(C)(C)C)cc1 [ITRI-90, (2S,4S)-1-((S)-3,3-dimethyl-2-(2-(4-(4-(1-(3-(trifluoromethyl)-7,8-dihydro-[1,2,4]triazolo[4,3-b]pyridazin-6-yl)piperidin-4-yl)phenoxy)butoxy)acetamido)butanoyl)-4-hydroxy-N-(4-(4-methylthiazol-5-yl)benzyl)pyrrolidine-2-carboxamide] | 15.9 | 6.59 ± 3.13 | 4.13 ± 1.93 | – | 6.62 | – | – | 1.5 ± 0.7 | – | – | 25500 ± 13600 | 3940 ± 1140 | – | – | 7056.67 ± 2594.81 | 600.13 ± 263.33 | 1.67 ± 0.58 | 23 | 18000 | 7060
